Test results published in patent publication US20240124456A1, “AZA-ERGOLINE DERIVATIVE AND PREPARATION METHOD THEREFOR AND APPLICATION THEREOF” (SHANGHAITECH UNIVERSITY, priority 2021, published 2024).

Columns and labels:
[1] = biological target: T1, dopamine D2 receptors (Homo sapiens (Human), UniProt P14416); assay: G protein Gαi1-γ9 dissociation BRET, dopamine D2 receptor functional activity; format: cell-based; details: for Emax: relative to the endogenous ligand dopamine, read-out: Gai1 BRET Emax % ± SEM
Procedure: To examine downstream G protein signaling mediated by dopamine D2 receptors, 6 cm dish was used for transfection with 1μg of dopamine D2 receptors, 1μg of Gαi1 fused to seaweed luciferase (Gαi1-Rluc), 1 μg of Gβ3, 1 μg of Gγ9 fused to green fluorescent protein (Gγ9-GFP) and 16 μL of transfection reagent PEI. […] On the third day, the drugs were added for test.
(§1) To examine downstream G-protein signaling pathway mediated by dopamine D2 receptors, on the first day, 6 cm dish was used for transfection with 1μg of dopamine D2 receptors, 1μg of Gαi1 containing C-terminal seaweed luciferase (GGαi1-Rluc), 1 μg of […], 1 μg of Gγ9 containing C-terminal green fluorescent protein (Gγ9-GFP) and 16 μL of PEI. At the same time, in order to examine the downstream f3-arrestin2 signaling pathway mediated by dopamine D2 receptors, on the first day, 6 cm dish was used for transfection with 500 μg of dopamine D2 receptors containing C-terminal seaweed luciferase (D2-Rluc), 500 μg of G protein-coupled receptor kinase 2 (GRK2), 2500 μg of […] containing N-terminal green fluorescent protein (GFP2-ARRB2) and 14 μL of PEI. The next day, the overgrown cells were digested and plated a 96-well plate at the amount of cells contained in a 6 cm culture dish with overgrown cells, and 100 μL of culture medium was added to each well. On the third day, the drugs were added for test. The 96-well plate was taken out from the cell culture room to remove the culture medium, 40 μL of the substrate coelenterazine 400a (final concentration of 5 μM) was added to each well, and then 20 μL of different drugs were added in turn from left to right to ensure that the final concentration of the drugs decreased gradually from bottom to top, and each treatment was repeated twice. Finally, the prepared samples were loaded on machine for test. The machine reading value reflected the intracellular β-arrestin2 on the membrane and the dissociation of G protein trimer. The former indicated the degree of activation of the β-arrestin2 signaling pathway downstream of the dopamine D2 receptors, and the latter indicated the degree of activation of the G protein signaling pathway downstream of the dopamine D2 receptors.

[2] = biological target: T1, dopamine D2 receptors; assay: β-arrestin2 recruitment BRET, dopamine D2 receptor functional activity; format: cell-based; details: for Emax: relative to the endogenous ligand dopamine, read-out: β-arrestin2 BRET Emax % ± SEM
Procedure: To examine the downstream f3-arrestin2 signaling pathway mediated by dopamine D2 receptors, 6 cm dish was used for transfection with 500 […] of dopamine D2 receptors fused to seaweed luciferase (D2-Rluc), 500 μg of G protein-coupled receptor kinase 2 (GRK2), 2500 μg of β-arrestin2 fused to green fluorescent protein (GFP2-ARRB2) and 14 μL of transfection reagent PEI. The next day, the overgrown cells were digested and plated a 96-well plate at the amount of cells contained in a 6 cm culture dish with overgrown cells, and 100 μL of culture medium was added to each well. On the third day, the drugs were added for test.
as §1

[3] = biological target: T1, dopamine D2 receptors; assay: Radioligand competition binding, affinity for dopamine D2 receptors ([3H]-Methylspiperone); details: [3H]-Methylspiperone (0.3-0.5 nM), HEK-293T membranes; for Ki: I-1 to 19 n=3, I-20 to 27 single determination; for Affinity pKi ± SEM: n=3
Procedure: A 10 cm diameter dish was used for transfection with 10 ng of the dopamine D2 receptors and 40 μL of PEI. After 48 hours, the 10 cm dish was taken out from the cell culture room and the cultured cells had expressed the dopamine D2 receptors. A vacuum pump was used to suck off the culture medium, 3 mL of lysis buffer (50 mM Tris hydrochloric acid buffer, pH 7.4) was added to each well, and the cells were placed in a 4° C. freezer for 10 minutes. After the cells were detached, the cells were transferred to a 15 mL centrifuge tube and centrifuged at 1500 rpm for 5 minutes at 4° C., and the supernatant was discarded. The cell pellet was transferred to a tissue homogenizer, and 3 mL of lysis buffer was added and fully ground until the cells were broken. Then, cell suspension was equally divided into several EP tubes, centrifuged at 4° C. and 12000 rpm for 5 min, and the supernatant was discarded. The precipitate was the cell membrane component containing the dopamine D2 receptors and stored at −80° C.
First, a standard binding buffer (50 mM HEPES, 50 mM NaCl, 5 mM MgCl2, 0.5 mM EDTA, pH 7.4) was added to the cell membrane component containing the dopamine D2 receptors, and the cell membrane was disrupted and resuspended with an electric tissue homogenizer. 30 μL of membrane protein suspension was added to each well of a 96-well plate. Then, 30 μL of different drugs were added to the 96-well plate from left to right to ensure that the final drug concentrations were 10^−5 M, 10^−6 M, 10^−7 M, 10^−8 M, 10^−9 M and 0 M, with two replicates per treatment. Next, 30 μL [^3H]-N-Methylspiperone was added to each well of the 96-well plate, and the plate was incubated for 2 hours at room temperature in the dark. The unbound isotopes were removed by Whatman GF/C filter membrane and vacuum pump, and the isotopes bound to the receptors were detected by MicroBeta isotope liquid scintillation counter.
The affinity of the compounds of the present invention for the dopamine D2 receptors was determined by the method of radioligand competition experiment. In the first step, a cell membrane component containing specific dopamine D2 receptors was prepared. A10 cm dish was used for transfection with 10 ng of the dopamine D2 receptors and 40 μL of PEI. After 48 hours, the 10 cm dish was taken out from the cell culture room and the cultured cells had expressed the dopamine D2 receptors. A vacuum pump was used to suck off the culture medium, 3 mL of lysis buffer was added to each well, and the cells were placed in a 4° C. freezer for 10 minutes. After the cells were detached, the cells were transferred to a 15 mL centrifuge tube and centrifuged at 1500 rpm for 5 minutes at 4° C., and the supernatant was discarded. The cell pellet was transferred to a tissue homogenizer, and 3 mL of lysis buffer was added and fully ground until the cells were broken. Then, cell suspension was equally divided into several EP tubes, centrifuged at 4° C. and 12000 rpm for 5 min, and the supernatant was discarded. The precipitate was the cell membrane component containing the dopamine D2 receptors. […] First, a standard binding buffer was added to the cell membrane component containing the dopamine D2 receptors, and the cell membrane was disrupted and resuspended with an electric tissue homogenizer. 30 μL of membrane protein suspension was added to each well of a 96-well plate. Then, 30 μL of different drugs were added to the 96-well plate from left to right to ensure that the final drug concentrations were 10^−5 M, 10^−6 M, 10^−7 M, 10^−8 M, 10^−9 M and 0 M, with two replicates per treatment. Next, 30 μL [^3H]-Methylspiperone was added to each well of the 96-well plate. The plate was incubated for 2 hours at room temperature in the dark. Detection. The machine reading value reflected the amount of [^3H]-Methylspiperone bound on the membrane, and after further data processing, the affinity Ki value of different compounds for dopamine D2 receptors was obtained.

[4] = HEK-293T, I-1 to 19 n=3, I-20 to 27 single determination, read-out: Gai1 BRET EC50
[5] = HEK-293T, I-1 to 19 n=3, I-20 to 27 single determination, read-out: β-arrestin2 BRET EC50
[6] = antagonistic activity, single determination, read-out: Gai1 BRET EC50 (antagonistic activity)

T1 sequence (P14416 whole entry, the tested form may be a part): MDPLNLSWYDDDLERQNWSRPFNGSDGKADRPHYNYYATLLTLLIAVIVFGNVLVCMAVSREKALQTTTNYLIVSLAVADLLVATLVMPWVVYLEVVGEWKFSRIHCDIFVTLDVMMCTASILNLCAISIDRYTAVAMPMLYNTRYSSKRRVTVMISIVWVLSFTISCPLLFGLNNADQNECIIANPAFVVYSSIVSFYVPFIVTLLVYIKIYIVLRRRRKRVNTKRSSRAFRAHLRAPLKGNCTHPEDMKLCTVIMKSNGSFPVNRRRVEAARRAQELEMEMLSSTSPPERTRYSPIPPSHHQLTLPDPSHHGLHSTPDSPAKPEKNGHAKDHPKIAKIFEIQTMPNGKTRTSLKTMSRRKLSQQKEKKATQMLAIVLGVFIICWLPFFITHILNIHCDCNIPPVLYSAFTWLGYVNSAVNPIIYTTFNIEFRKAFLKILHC

| EC50 [1, 4] [nM] | Emax [1] [%] | EC50 [2, 5] [nM] | Emax [2] [%] | EC50 [1, 6] [nM] | β-arrestin2 BRET EC50 ([2]; HEK-293T, I-1 to 19 n=3, I-20 to 27 single determination) | Ki [3] [nM] | Affinity pKi ± SEM [3] | EC50 ([2]; antagonistic activity, single determination, read-out: β-arrestin2 BRET EC50 (antagonistic activity)) [nM] | EC50 ([2]; n=3, read-out: β-arrestin2 BRET pEC50 ± SEM (converted)) [nM] | SMILES |
| --- | --- | --- | --- | --- | --- | --- | --- | --- | --- | --- |
|  |  |  |  | 7620 | Inactive |  |  |  |  | Cn1cc2c3c(cccc31)N1CCN(CCCC(=O)c3ccc(F)cc3)CC1C2 (stereo not drawn) [Compound I-26, 1-(4-fluorobenzene)-4-(4-methyl-4,6,6a,7,9,10-hexahydro-8H-pyrazino[1,2-a]pyrrolo[4,3,2-de]quinolin-8-yl)-1-butanone] |
| 17.4 | 92 | 20.4 | 89 |  |  | 27.1 | (7.57 ± 0.03) |  |  | O=C(N[C@H]1CC[C@H](CCN2CCN3c4cccc5[nH]cc(c45)CC3C2)CC1)N1CCCCC1 (stereo partly drawn) [Compound I-12, N-(4-(2-(4,6,6a,7,9,10-hexahydro-8H-pyrazino[1,2-a]pyrrolo[4,3,2-de]quinolin-8-yl)ethyl)trans-cyclohexyl)piperidine-1-carboxamide] |
|  |  |  |  | 1200 |  |  |  | 1540 |  | Cn1cc2c3c(cccc31)N1CCN(CCCC(O)c3ccc(F)cc3)CC1C2 (stereo not drawn) [Compound I-27, 1-(4-fluorobenzene)-4-(4-methyl-4,6,6a,7,9,10-hexahydro-8H-pyrazino[1,2-a]pyrrolo[4,3,2-de]quinolin-8-yl)-1-butanol] |
| 11.4 | 38 | 10.4 | 26 |  |  |  |  |  |  | O=C(CCCN1CCN2c3cccc4[nH]cc(c34)CC2C1)c1ccc(F)cc1 (stereo not drawn) [Compound I-24, 1-(4-fluorobenzene)-4-(4,6,6a,7,9,10-hexahydro-8H-pyrazino[1,2-a]pyrrolo[4,3,2-de]quinolin-8-yl)-1-butanone] |
| 38 | 41 | 91.6 | 32 |  |  | 176 |  |  |  | Cn1cc2c3c(cccc31)N1CCN(C/C=C/COc3ccc4c(c3)NC(=O)CC4)CC1C2 (stereo not drawn) [Compound I-22, (E)-7-((4-(4-methyl-4,6,6a,7,9,10-hexahydro-8H-pyrazino[1,2-a]pyrrolo[4,3,2-de]quinolin-8-yl)-2-buten-1-yl)oxy)-3,4-dihydroquinolin-2(1H)-one] |
| 32.7 | 61 | 202 | 38 |  |  | 55.8 | (7.25 ± 0.12) |  | 200 | Cc1nc2n(c(=O)c1CCN1CCN3c4cccc5[nH]cc(c45)CC3C1)CCCC2 (stereo not drawn) [Compound I-17, 3-(2-(4,6,6a,7,9,10-hexahydro-8H-pyrazino[1,2-a]pyrrolo[4,3,2-de]quinolin-8-yl)ethyl)-2-methyl-6,7,8,9-tetrahydro-4H-pyrido[1,2-a]pyrimidin-4-one] |
| 10.2 | 74 | 98.2 | 88 |  |  |  |  |  |  | O=C1CCc2ccc(OC/C=C/CN3CCN4c5cccc6[nH]cc(c56)CC4C3)cc2N1 (stereo not drawn) [Compound I-20] |
| 7.71 | 77 | 61.9 | 90 |  |  |  |  |  |  | O=c1ccc2ccc(OC/C=C/CN3CCN4c5cccc6[nH]cc(c56)CC4C3)cc2[nH]1 (stereo not drawn) [Compound I-21] |
| 58.9 | 84 | 40.7 | 90 |  |  |  |  |  |  | CN(C)C(=O)N[C@H]1CC[C@H](CN2CCN3c4cccc5[nH]cc(c45)CC3C2)CC1 (stereo partly drawn) [Compound I-16] |

| SMILES | EC50 [1, 4] [nM] | Emax [1] [%] | EC50 [2, 5] [nM] | Emax [2] [%] | EC50 [1, 6] [nM] | β-arrestin2 BRET EC50 ([2]; HEK-293T, I-1 to 19 n=3, I-20 to 27 single determination) | Ki [3] [nM] | Affinity pKi ± SEM [3] | EC50 ([2]; antagonistic activity, single determination, read-out: β-arrestin2 BRET EC50 (antagonistic activity)) [nM] | EC50 ([2]; n=3, read-out: β-arrestin2 BRET pEC50 ± SEM (converted)) [nM] |
| --- | --- | --- | --- | --- | --- | --- | --- | --- | --- | --- |
| c1cc2c3c(c[nH]c3c1)CC1CN(CCCCOc3ccc4scnc4c3)CCN21 (stereo not drawn) [Compound I-3] | 43.6 | 92 | 64.6 | 93 |  |  |  |  |  |  |
| Cc1noc2cc(OCCCCN3CCN4c5cccc6[nH]cc(c56)CC4C3)ccc12 (stereo not drawn) [Compound I-5, 6-(4-(4,6,6a,7,9,10-hexahydro-8H-pyrazino[1,2-a]pyrrolo[4,3,2-de]quinolin-8-yl)butoxy)-3-methylbenzo[d] is oxazole] | 7.44 | 83 | 54 | 61 |  |  | 37.1 | (7.43 ± 0.09) |  |  |
| c1cc2c3c(c[nH]c3c1)CC1CN(CCCOc3ccc4c(c3)OCO4)CCN21 (stereo not drawn) [Compound I-9, 8-(3-(benzo[d][1,3]dioxo1-5-yloxy)propyl)-6,6a,7,8,9,10-hexahydro-4H-pyrazino[1,2-a]pyrrolo[4,3,2-de]quinoline] | 166 | 92 | 148 | 96 |  |  |  |  |  |  |
| OC(CCCN1CCN2c3cccc4[nH]cc(c34)CC2C1)c1ccc(F)cc1 (stereo not drawn) [Compound I-25, 1-(4-fluorobenzene)-4-(4,6,6a,7,9,10-hexahydro-8H-pyrazino[1,2-a]pyrrolo[4,3,2-de]quinolin-8-yl)-1-butanol] | 7.48 | 29 | 9.6 | 30 |  |  |  |  |  |  |
| O=C(N[C@H]1CC[C@H](CCN2CCN3c4cccc5[nH]cc(c45)CC3C2)CC1)N1CCCC1 (stereo partly drawn) [Compound I-11, N-(4-(2-(4,6,6a,7,9,10-hexahydro-8H-pyrazino[1,2-a]pyrrolo[4,3,2-de]quinolin-8-yl)ethyl)trans-cyclohexyl)tetrahydropyrrole-l-carboxamide] | 9.33 | 91 | 11.2 | 87 |  |  |  |  |  |  |
